How the values were obtained:
EW-3 (Ewing's Sarcoma) [1] = experiment: Bliss excess, mean over the matrix (fraction); higher = more synergy
Procedure, shortened: (§1)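 Cell lines grown in DMEM/F12 or RPMI with 10% FBS were plated in 1536-well plates and held 24 hours at 37°C, 5% CO2 before 72 hours of exposure to two-drug dose matrices, with DMSO typically at 0.2%. CellTiter-Glo 2.0 luminescence gave viability, which was converted to inhibition. Vehicle wells were set to 0 and blank wells to 1. Combination Emax is the second-highest inhibition in the matrix, and Bliss excess is the observed combination effect minus the expected EA + EB − EA·EB, where EA and EB are the single-agent effects.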

GI-1 (Glioblastoma) [2] = experiment: as above
Procedure, shortened: as §1

[3] = test system: H-EMC-SS (Chondrosarcoma); experiment: as above
Procedure, shortened: as §1

[4] = test system: HSC-2 (Oral Cavity Carcinoma); experiment: as above
Procedure, shortened: as §1

[5] = test system: JHH-7 (Hepatocellular Carcinoma); experiment: as above
Procedure, shortened: as §1

[6] = test system: KINGS-1 (Low Grade Glioma); experiment: as above
Procedure, shortened: as §1

[7] = test system: LC4-1 (B-Lymphoblastic Leukemia); experiment: as above
Procedure, shortened: as §1

NB7 (Neuroblastoma) [8] = experiment: as above
Procedure, shortened: as §1

[9] = test system: NCI-N87 (Gastric Carcinoma); experiment: as above
Procedure, shortened: as §1

[10] = test system: OCUB-M (Breast Carcinoma); experiment: as above
Procedure, shortened: as §1

[11] = test system: OCUM-1 (Gastric Carcinoma); experiment: as above
Procedure, shortened: as §1

[12] = test system: SCC-9 (Oral Cavity Carcinoma); experiment: as above
Procedure, shortened: as §1

[13] = test system: SNU-C1 (Colorectal Carcinoma); experiment: as above
Procedure, shortened: as §1

[14] = test system: TGBC11TKB (Gastric Carcinoma); experiment: as above
Procedure, shortened: as §1

[15] = test system: VMRC-LCD (Lung Adenocarcinoma); experiment: as above
Procedure, shortened: as §1

EW-3 (Ewing's Sarcoma) [16] = experiment: combination Emax (second highest fraction inhibited in the dose matrix, 72 h); higher = more inhibition; extreme values may be limits of the assay
Procedure, shortened: as §1

GI-1 (Glioblastoma) [17] = experiment: as above
Procedure, shortened: as §1

[18] = test system: H-EMC-SS (Chondrosarcoma); experiment: as above
Procedure, shortened: as §1

[19] = test system: HSC-2 (Oral Cavity Carcinoma); experiment: as above
Procedure, shortened: as §1

[20] = test system: JHH-7 (Hepatocellular Carcinoma); experiment: as above
Procedure, shortened: as §1

[21] = test system: KINGS-1 (Low Grade Glioma); experiment: as above
Procedure, shortened: as §1

[22] = test system: LC4-1 (B-Lymphoblastic Leukemia); experiment: as above
Procedure, shortened: as §1

NB7 (Neuroblastoma) [23] = experiment: as above
Procedure, shortened: as §1

[24] = test system: NCI-N87 (Gastric Carcinoma); experiment: as above
Procedure, shortened: as §1

[25] = test system: OCUB-M (Breast Carcinoma); experiment: as above
Procedure, shortened: as §1

[26] = test system: OCUM-1 (Gastric Carcinoma); experiment: as above
Procedure, shortened: as §1

[27] = test system: SCC-9 (Oral Cavity Carcinoma); experiment: as above
Procedure, shortened: as §1

[28] = test system: SNU-C1 (Colorectal Carcinoma); experiment: as above
Procedure, shortened: as §1

[29] = test system: TGBC11TKB (Gastric Carcinoma); experiment: as above
Procedure, shortened: as §1

[30] = test system: VMRC-LCD (Lung Adenocarcinoma); experiment: as above
Procedure, shortened: as §1
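Wherever Bliss excess, mean over the matrix is given: after 72 h of two-drug dosing.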

Compound | Bliss excess (EW-3 (Ewing's Sarcoma) [1]) | Bliss excess (GI-1 (Glioblastoma) [2]) | Bliss excess [3] | Bliss excess [4] | Bliss excess [5] | Bliss excess [6] | Bliss excess [7] | Bliss excess (NB7 (Neuroblastoma) [8]) | Bliss excess [9] | Bliss excess [10] | Bliss excess [11] | Bliss excess [12] | Bliss excess [13] | Bliss excess [14] | Bliss excess [15] | combination Emax (EW-3 (Ewing's Sarcoma) [16]) | combination Emax (GI-1 (Glioblastoma) [17]) | combination Emax [18] | combination Emax [19] | combination Emax [20] | combination Emax [21] | combination Emax [22] | combination Emax (NB7 (Neuroblastoma) [23]) | combination Emax [24] | combination Emax [25] | combination Emax [26] | combination Emax [27] | combination Emax [28] | combination Emax [29] | combination Emax [30]
N#Cc1cnc(Nc2cc(NC[C@H]3CNCCO3)c(C(F)(F)F)cn2)cn1 [SRA737] + Nc1ccn([C@@H]2O[C@H](CO)[C@@H](O)C2(F)F)c(=O)n1 [Gemcitabine] (first compound max 10 µM, 7x7, partner max 0.3 µM) | -0.0521 | 0.0455 | -0.0056 | 0.059 | 0.0691 | -0.0208 | 0.113 | 0.0519 | -0.0415 | 0.0085 | -0.022 | 0.0211 | -0.0175 | 0.0075 | 0.0934 | 0.902 | 0.916 | 0.542 | 0.959 | 0.569 | 0.29 | 0.976 | 0.765 | 0.702 | 0.951 | 0.709 | 0.401 | 0.712 | 0.942 | 0.773
O=C(c1cc(Cc2n[nH]c(=O)c3ccccc23)ccc1F)N1CCN(C(=O)C2CC2)CC1 [Olaparib] + CN(CC[C@H](CSC1=CC=CC=C1)NC2=C(C=C(C=C2)S(=O)(=O)NC(=O)C3=CC=C(C=C3)N4CCC(CC4)[C@H](C5=CC=CC=C5C6=CC=C(C=C6)Cl)O)S(=O)(=O)C(F)(F)F)CCO [AZD4320] (first compound max 10 µM, 7x7, partner max 1 µM) | 0.0125 | 0.0255 | 0.0051 | 0.0039 | -0.0326 | -0.0792 | 0.0153 | -0.0251 | -0.0729 | -0.0115 | 0.0129 | -0.0395 | -0.055 | 0.0082 | -0.029 | 0.904 | 0.302 | 0.422 | 0.201 | 0.203 | 0.646 | 1 | 0.393 | 0.503 | 0.454 | 0.834 | 0.398 | 0.613 | 0.42 | 0.114
CS(=O)(=O)CCNCc1ccc(-c2ccc3ncnc(Nc4ccc(OCc5cccc(F)c5)c(Cl)c4)c3c2)o1 [Lapatinib] + Cn1cnc2c(F)c(Nc3ccc(Br)cc3Cl)c(C(=O)NOCCO)cc21 [Selumetinib] (first compound max 10 µM, 7x7, partner max 10 µM) | -0.0017 | 0.0054 | -0.0086 | -0.0044 | -0.0408 | -0.0191 | 0.0675 | -0.0408 | 0.0451 | -0.0507 | -0.0148 | 0.0063 | -0.0196 | 0.106 | -0.0369 | 0.405 | 0.368 | 0.317 | 0.782 | 0.344 | 0.337 | 0.954 | 0.119 | 0.991 | 0.551 | 0.95 | 0.988 | 0.785 | 0.527 | 0.207
O=C(c1cc(Cc2n[nH]c(=O)c3ccccc23)ccc1F)N1CCN(C(=O)C2CC2)CC1 [Olaparib] + CC1(C)CCC(CN2CCN(c3ccc(C(=O)NS(=O)(=O)c4ccc(NCC5CCOCC5)c([N+](=O)[O-])c4)c(Oc4cnc5[nH]ccc5c4)c3)CC2)=C(c2ccc(Cl)cc2)C1 [Venetoclax] (first compound max 10 µM, 7x7, partner max 1 µM) | 0.0351 | 0.0518 | -0.0572 | -0.0219 | -0.032 | -0.0359 | 0.0096 | -0.0285 | -0.0552 | -0.0483 | -0.0472 | -0.047 | -0.0425 | -0.0224 | -0.0266 | 0.887 | 0.265 | 0.119 | 0.115 | 0.173 | 0.131 | 1 | 0.301 | 0.121 | 0.17 | 0.172 | 0.0718 | 0.0848 | 0.183 | 0.151
C[C@@H]1COCCN1c1cc(C2([S@](C)(=N)=O)CC2)nc(-c2ccnc3[nH]ccc23)n1 [AZD6738] + Nc1ccn([C@@H]2O[C@H](CO)[C@@H](O)C2(F)F)c(=O)n1 [Gemcitabine] (first compound max 10 µM, 7x7, partner max 0.3 µM) | -0.0176 | 0.0797 | 0.006 | 0.0604 | 0.085 | -0.023 | 0.0935 | 0.0831 | 0.0265 | 0.028 | -0.0316 | 0.024 | -0.0261 | -0.0137 | 0.0526 | 0.939 | 0.933 | 0.545 | 0.971 | 0.722 | 0.388 | 0.988 | 0.903 | 0.738 | 0.947 | 0.727 | 0.47 | 0.721 | 0.936 | 0.74
C[C@@H](Oc1cc(-c2cnn(C3CCNCC3)c2)cnc1N)c1c(Cl)ccc(F)c1Cl [Crizotinib] + Cn1cnc2c(F)c(Nc3ccc(Br)cc3Cl)c(C(=O)NOCCO)cc21 [Selumetinib] (first compound max 10 µM, 7x7, partner max 10 µM) | -0.134 | -0.0355 | -0.0166 | -0.0618 | -0.0152 | 0.0342 | -0.0198 | -0.0033 | -0.0764 | 0.0034 | 0.0251 | 0.0117 | 0.0325 | 0.0524 | -0.0474 | 0.525 | 0.602 | 0.405 | 0.551 | 0.56 | 0.799 | 0.896 | 0.443 | 0.383 | 0.458 | 0.936 | 0.919 | 0.892 | 0.557 | 0.665
CN(CCO)CC[C@H](CSc1ccccc1)Nc1ccc(S(=O)(=O)NC(=O)c2ccc(N3CCC([C@@H](O)c4ccccc4-c4ccc(Cl)cc4)CC3)cc2)cc1S(=O)(=O)C(F)(F)F [AZD4320] + Nc1ccn([C@@H]2O[C@H](CO)[C@@H](O)C2(F)F)c(=O)n1 [Gemcitabine] (first compound max 1 µM, 7x7, partner max 0.3 µM) | -0.0522 | 0.112 | 0.0342 | 0.0613 | -0.033 | -0.0068 | 0.0156 | -0.0153 | -0.0058 | 0.0471 | 0.0262 | -0.0247 | -0.0482 | 0.0225 | -0.0095 | 0.91 | 0.936 | 0.832 | 1 | 0.284 | 0.502 | 1 | 0.556 | 0.822 | 0.812 | 0.905 | 0.539 | 0.533 | 0.882 | 0.288
CN(CCO)CC[C@H](CSc1ccccc1)Nc1ccc(S(=O)(=O)NC(=O)c2ccc(N3CCC([C@@H](O)c4ccccc4-c4ccc(Cl)cc4)CC3)cc2)cc1S(=O)(=O)C(F)(F)F [AZD4320] + CC(=O)O[C@H]1C(=O)[C@@]2(C)[C@H]([C@H](OC(=O)c3ccccc3)[C@]3(O)C[C@H](OC(=O)[C@H](O)[C@@H](NC(=O)c4ccccc4)c4ccccc4)C(C)=C1C3(C)C)[C@]1(OC(C)=O)CO[C@@H]1C[C@@H]2O [Paclitaxel] (first compound max 1 µM, 7x7, partner max 3 µM) | 0.0269 | 0.0374 | 0.0785 | 0.0087 | 0.144 | 0.18 | 0.0047 | 0.131 | 0.182 | 0.0811 | 0.0074 | 0.109 | 0.179 | 0.0373 | 0.0035 | 0.961 | 1 | 0.672 | 1 | 0.951 | 0.966 | 1 | 0.94 | 0.921 | 1 | 0.955 | 0.745 | 0.829 | 0.994 | 0.918
Cc1c2c(nn1C)CSCc1cc(n(C)n1)CSc1cc(c3ccccc3c1)OCCCc1c(C(=O)O)n(C)c3c-2c(Cl)ccc13 [AZD5991] + Nc1ccn([C@@H]2O[C@H](CO)[C@@H](O)C2(F)F)c(=O)n1 [Gemcitabine] (first compound max 1 µM, 7x7, partner max 0.3 µM) | 0.0096 | -0.0002 | -0.005 | 0.0273 | -0.0114 | -0.0719 | 0.0158 | 0.0093 | -0.0095 | 0.0283 | -0.0565 | -0.0216 | 0.0119 | -0.0006 | 0.0333 | 0.935 | 0.86 | 0.594 | 0.992 | 0.314 | 0.195 | 0.975 | 0.844 | 0.61 | 1 | 0.656 | 0.237 | 0.449 | 0.929 | 0.539
